Measurements published in ChEMBL document CHEMBL1201862, “PubChem BioAssay data set” (2004).
Activity calls are given as the source filed them.

What was measured:
[1] = molecular target: T1, Kappa-type opioid receptor (Homo sapiens, UniProt P41145); type: functional
Beta-galactosidase = Beta-galactosidase (Escherichia coli, UniProt Q8VNN2); type: functional
[2] = molecular target: T1, Kappa-type opioid receptor; type: functional; remark: listed apart in the source
[3] = system: Streptococcus sp. 'group A'; assay: Streptococcus pyogenes SK(-)GAS viability under kanamycin – luminescence, BacTiterGlo, confirmation, counter-screen for streptokinase expression inhibitor project, dose response (AID 1900); type: functional, organism-based
Streptokinase A = molecular target: T2, Streptokinase A (Streptococcus pyogenes serotype M1, UniProt P10520); assay: viability-normalized secreted streptokinase activity reduction – plasminogen activation absorbance, OD405, dose response (AID 1914); type: functional, Streptococcus pyogenes M1 GAS;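 also: secreted streptokinase activity via plasminogen activation per viability signal from cell pellet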
T2 sequence (P10520 whole entry): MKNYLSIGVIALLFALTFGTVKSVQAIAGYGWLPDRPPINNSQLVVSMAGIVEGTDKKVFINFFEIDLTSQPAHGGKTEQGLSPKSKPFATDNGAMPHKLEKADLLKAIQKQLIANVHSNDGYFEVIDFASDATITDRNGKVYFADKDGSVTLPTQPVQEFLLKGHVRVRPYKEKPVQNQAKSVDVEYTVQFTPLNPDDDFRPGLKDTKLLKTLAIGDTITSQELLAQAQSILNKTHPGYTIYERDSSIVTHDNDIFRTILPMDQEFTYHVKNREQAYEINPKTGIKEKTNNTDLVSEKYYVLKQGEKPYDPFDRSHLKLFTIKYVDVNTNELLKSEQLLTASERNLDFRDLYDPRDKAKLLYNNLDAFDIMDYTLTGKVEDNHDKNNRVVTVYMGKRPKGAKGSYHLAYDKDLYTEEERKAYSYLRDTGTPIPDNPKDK

Streptococcus = assay: GAS UMAA2166 growth inhibition – luminescence, BacTiterGlo, counter-screen for streptokinase expression inhibitor project, dose response (AID 1915); type: functional, organism-based;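 also: potency for reduction of bacterial viability or growth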
Insulin-degrading enzyme [4] = molecular target: T3, Insulin-degrading enzyme (Homo sapiens, UniProt P14735); assay: recombinant IDE activation, cell-free – biochemical, fluorescence polarization, counter-screen for IDE activator project, dose response (AID 588681)
T3 sequence (P14735 whole entry): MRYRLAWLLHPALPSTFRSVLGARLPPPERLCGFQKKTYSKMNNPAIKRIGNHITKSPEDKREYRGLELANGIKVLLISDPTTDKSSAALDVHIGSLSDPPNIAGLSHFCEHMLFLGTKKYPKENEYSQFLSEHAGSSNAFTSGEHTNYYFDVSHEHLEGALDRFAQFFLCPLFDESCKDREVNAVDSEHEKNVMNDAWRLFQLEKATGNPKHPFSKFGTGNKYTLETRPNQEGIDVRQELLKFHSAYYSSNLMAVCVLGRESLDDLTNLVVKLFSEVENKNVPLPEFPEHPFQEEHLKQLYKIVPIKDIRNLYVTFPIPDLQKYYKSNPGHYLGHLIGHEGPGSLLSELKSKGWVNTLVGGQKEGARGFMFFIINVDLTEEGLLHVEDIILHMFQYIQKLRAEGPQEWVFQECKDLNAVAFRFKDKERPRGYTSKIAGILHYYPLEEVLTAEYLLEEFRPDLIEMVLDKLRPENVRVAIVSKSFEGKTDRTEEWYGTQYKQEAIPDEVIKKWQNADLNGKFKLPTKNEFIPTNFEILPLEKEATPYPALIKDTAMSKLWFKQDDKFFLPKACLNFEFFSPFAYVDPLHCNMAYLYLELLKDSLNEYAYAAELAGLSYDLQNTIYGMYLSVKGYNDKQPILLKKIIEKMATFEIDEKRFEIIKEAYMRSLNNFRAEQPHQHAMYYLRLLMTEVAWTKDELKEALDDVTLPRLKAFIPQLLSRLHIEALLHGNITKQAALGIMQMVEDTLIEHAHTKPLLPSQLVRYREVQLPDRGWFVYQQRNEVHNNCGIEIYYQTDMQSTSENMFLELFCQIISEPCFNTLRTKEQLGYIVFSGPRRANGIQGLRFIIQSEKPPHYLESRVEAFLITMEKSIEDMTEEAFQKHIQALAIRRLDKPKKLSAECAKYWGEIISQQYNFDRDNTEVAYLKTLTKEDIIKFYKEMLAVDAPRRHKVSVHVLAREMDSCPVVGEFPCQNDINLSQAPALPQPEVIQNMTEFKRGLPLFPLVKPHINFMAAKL

Insulin-degrading enzyme [5] = molecular target: T3, Insulin-degrading enzyme; assay: cellular IDE activation of Abeta substrate cleavage – fluorescence polarization, HEK cells, dose response (AID 588439); type: functional, cell-based
INS1 = assay: INS-1E survival protection against cytokine death – cell-based, luminescence, retest, dose response (AID 449756); type: functional; details: Rattus norvegicus;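 also: cell death triggered by IL-1 beta plus TNF-alpha plus IFN-gamma mixture; protective hits raise ATP signal compared with cytokine alone wells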
HEK293 [6] = assay: membrane integrity loss in HEK cells – cell-based, fluorescence, cytotoxicity control for IDE activator project, dose response (AID 588440); type: functional; details: Homo sapiens;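 also: cytotoxicity by LDH release measuring loss of membrane integrity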
HEK293 [7] = assay: optical interference in Abeta FP readout, dose response, artefact control for IDE activator project, biochemical, fluorescence polarization (AID 588442); type: functional, cell-based; details: Homo sapiens

T1 sequence (P41145 whole entry): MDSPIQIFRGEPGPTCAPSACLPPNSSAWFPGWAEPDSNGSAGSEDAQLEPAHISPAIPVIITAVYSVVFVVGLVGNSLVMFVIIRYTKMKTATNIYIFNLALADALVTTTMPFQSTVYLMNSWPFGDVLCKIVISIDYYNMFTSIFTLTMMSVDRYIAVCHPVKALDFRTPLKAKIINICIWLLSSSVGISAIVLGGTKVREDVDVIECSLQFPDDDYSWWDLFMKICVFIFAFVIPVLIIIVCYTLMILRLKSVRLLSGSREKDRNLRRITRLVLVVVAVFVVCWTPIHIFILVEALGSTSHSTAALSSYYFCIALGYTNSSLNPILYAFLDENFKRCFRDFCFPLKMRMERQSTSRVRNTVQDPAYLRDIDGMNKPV
Chain of Beta-galactosidase (Q8VNN2 whole entry): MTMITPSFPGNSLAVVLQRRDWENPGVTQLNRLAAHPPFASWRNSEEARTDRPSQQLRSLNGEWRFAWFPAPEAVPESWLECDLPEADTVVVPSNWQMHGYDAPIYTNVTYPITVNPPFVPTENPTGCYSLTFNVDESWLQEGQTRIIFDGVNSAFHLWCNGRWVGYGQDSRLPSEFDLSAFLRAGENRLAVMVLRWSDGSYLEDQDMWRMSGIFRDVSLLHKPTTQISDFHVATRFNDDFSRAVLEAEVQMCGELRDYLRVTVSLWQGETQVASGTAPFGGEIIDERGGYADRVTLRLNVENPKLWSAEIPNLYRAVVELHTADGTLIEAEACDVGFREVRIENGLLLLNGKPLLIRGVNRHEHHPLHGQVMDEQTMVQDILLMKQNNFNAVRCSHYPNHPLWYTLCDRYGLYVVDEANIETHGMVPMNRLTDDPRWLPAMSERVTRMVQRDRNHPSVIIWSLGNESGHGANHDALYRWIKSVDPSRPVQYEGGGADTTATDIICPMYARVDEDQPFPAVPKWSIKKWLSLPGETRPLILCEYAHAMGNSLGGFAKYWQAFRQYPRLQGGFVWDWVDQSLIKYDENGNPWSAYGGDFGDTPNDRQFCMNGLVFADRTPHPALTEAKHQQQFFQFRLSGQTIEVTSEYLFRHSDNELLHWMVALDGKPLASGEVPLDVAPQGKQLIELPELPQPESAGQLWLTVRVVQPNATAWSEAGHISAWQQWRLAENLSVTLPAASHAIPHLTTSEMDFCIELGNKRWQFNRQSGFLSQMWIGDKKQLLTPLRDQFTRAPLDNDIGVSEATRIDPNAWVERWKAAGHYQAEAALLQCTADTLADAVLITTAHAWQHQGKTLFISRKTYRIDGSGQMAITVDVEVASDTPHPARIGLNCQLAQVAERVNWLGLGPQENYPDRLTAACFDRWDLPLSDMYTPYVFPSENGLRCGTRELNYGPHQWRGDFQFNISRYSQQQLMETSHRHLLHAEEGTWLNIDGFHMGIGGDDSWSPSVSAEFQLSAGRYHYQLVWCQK

Row | Compound | IC50 [1] | EC50 (Beta-galactosidase) | IC50 [2] | EC50 [3] | EC50 (Streptokinase A) | EC50 (Streptococcus) | EC50 (Insulin-degrading enzyme [4]) | EC50 (Insulin-degrading enzyme [5]) | AC50 (INS1) | IC50 (HEK293 [6]) | EC50 (HEK293 [7])
1 | Oc1ccc2c3c1O[C@H]1c4oc5ccccc5c4C[C@@]4(O)[C@@H](C2)N(CC2CC2)CC[C@]314 | 0.699 µM (active) | > 31.5 µM (inactive) | < 0.5 µM |  |  |  |  |  |  |  | 
2 | CCOc1cc(/C=N/Nc2cc(C)nc(-n3nc(C)cc3C)n2)ccc1O | > 31.5 µM (inactive) | > 31.5 µM (inactive) | > 32 µM | 1.67 µM (active) | > 150 µM (not active) | 32.7 µM (active) | > 54.7 µM (inactive) | > 54.7 µM (inactive) | 0.862 µM (active) | 32.3 µM (inactive) | > 54.7 µM (inactive)
